Experimental data from patent US8466089B2, “Pyrazole compounds, process for their production and herbicides containing them” (Ishihara Sangyo Kaisha, Ltd., priority 2008, dated 2013).
Where two headings read alike, the source gives them in different places.

Experiments:
Type in all cases: in vivo
[1] = system: giant foxtail (Setaria faberi Herrm.); test: Test Example 5, foliar treatment versus Reference Compounds; conditions: 4.0 to 4.5 leaf stage, 20th day after application, read-out: Growth inhibition rate (%) (20th day after application) Giant foxtail
Text: (§1) Upland field soil was put into a 1/1,000,000 hectare pot, and seeds of various plants were sown. When the respective plants reached predetermined leaf stage ((1) velvetleaf (Abutilon theophrasti MEDIC.): 3.0 to 3.5 leaf stage, (2) giant foxtail (Setaria faberi Herrm.): 4.0 to 4.5 leaf stage, (3) green foxtail (Setaria viridis L.): 5.0 to 5.5 leaf stage, and (4) corn (Zea mays L.): 4.0 to 4.3 leaf stage, a wettable powder of compound No. 2-1 of the above-mentioned present invention, a wettable powder of the above-mentioned Reference Compound 1 and a wettable powder of the above-mentioned Reference Compound 2, prepared in accordance with a conventional preparation method, were weighed so that the active ingredients became the prescribed amounts, and diluted with water in an amount corresponding to 300 liter per 1 hectare (containing 0.5 vol % of an agricultural spreader (Destiny HC: WINFIELD SOLUTIONS by LLC). The spray solutions thus prepared were applied for foliar treatment by a small sprayer.
(§2) On the 7th to 20th day after application, the state of growth of the respective plants was visually observed, and the herbicidal effect was evaluated by a growth inhibition rate (%) of 0 (equivalent to the non-treated area) to 100% (complete kill).

[2] = system: velvetleaf (Abutilon theophrasti MEDIC.); test: as above; conditions: 3.0 to 3.5 leaf stage, 20th day after application, read-out: Growth inhibition rate (%) (20th day after application) Velvet leaf
Text: as §1, §2

[3] = system: green foxtail (Setaria viridis L.); test: as above; conditions: 5.0 to 5.5 leaf stage, 18th day after application, read-out: Growth inhibition rate (%) (18th day after application) Green foxtail
Text: as §1, §2

[4] = system: sorgo (Sorghum bicolor Moench) (var.: Lucky Sorgo); test: Test Example 6, soil column downward movement, sorgo bioassay; conditions: 14th day after sowing
Experimental: Soil (sterilized soil:sand=3:1) was packed (4 L) into a column (9.5 cm in diameter×40 cm in height, application area: 0.007 m^2), and tap water was dropped from above by a Peristaltic pump before application of the herbicide for the purpose of maintaining the soil moisture to be uniform. Then, 10 mL of a spray solution prepared so that each agent (Compound No. 2-1, the above Reference Compounds 1 and 2) would be at a concentration corresponding to 250 g/ha was dropwise applied by a pipette. After application, water was dropped again at a rate of 400 mL/hr for about 3 hours by means of a Peristaltic pump. After the dropping, the column was left to stand for 1 day, and then the column was vertically evenly divided and seeds of sorgo (Sorghum bicolor Moench) (var.: Lucky Sorgo) were sown in a row. On the 14th day after sowing, the state of growth of the plant was visually observed at 3 cm intervals from the application point of the agent, whereby the germination and the degree of growth were evaluated by a growth inhibition rate (%) of 0 (equivalent to the non-treated area) to 100% (complete kill) to obtain the results in Table 17.
From the above results, the growth inhibition rates of Reference Compounds No. 1 and No. 2 are observed in depths deeper than that of Compound No. 2-1. […] Whereas, Compound No. 2-1 stayed at a shallow portion of soil (in a layer of from 0 to 9 cm).

[5] = system: velvetleaf (Abutilon theophrasti MEDIC.); test: Test Example 2, soil application on the day after sowing; conditions: 21st to 22nd day after application, visual, read-out: Growth inhibition rate (%) Velvetleaf
Text: (§3) Upland field soil was put into a 1/170,000 hectare pot, and seeds of various plants (barnyardgrass (Echinochloa crus-galli L.), crabgrass (Digitaria sanquinalis L.), green foxtail (Setaria viridis L.), redroot pigweed (Amaranthus retroflexus L.), prickly sida (Sida spinosa L.), velvetleaf (Abutilon theophrasti MEDIC.), rice (Oryza sativa L.), corn (Zea mays L.), soybean (Glycine max Merr.)) and wheat (Triticum spp.) were sown. On the day after sowing, wettable powders or emulsifiable concentrates of the compounds of the present invention prepared in accordance with a conventional preparation method, were weighed so that the active ingredients became the prescribed amounts, and diluted with water in an amount corresponding to 500 liter per 1 hectare, followed by soil application with a small sprayer.
(§4) On the 21st to 22nd day after the application, the state of growth of the respective plants was visually observed, and the herbicidal effect was evaluated by a growth inhibition rate (%) of from 0 (equivalent to the non-treated area) to 100% (complete kill).

[6] = system: barnyardgrass (Echinochloa crus-galli L.); test: as above; conditions: 21st to 22nd day after application, visual, read-out: Growth inhibition rate (%) Barnyardgrass
Text: as §3, §4

rice (Oryza sativa L.) [7] = test: as above; conditions: 21st to 22nd day after application, visual, read-out: Growth inhibition rate (%) Rice
Text: as §3, §4

corn (Zea mays L.) [8] = test: as above; conditions: 21st to 22nd day after application, visual, read-out: Growth inhibition rate (%) Corn
Text: as §3, §4

wheat (Triticum spp.) [9] = test: as above; conditions: 21st to 22nd day after application, visual, read-out: Growth inhibition rate (%) Wheat
Text: as §3, §4

[10] = system: prickly sida (Sida spinosa L.); test: as above; conditions: 21st to 22nd day after application, visual, read-out: Growth inhibition rate (%) Prickly sida
Text: as §3, §4

[11] = system: redroot pigweed (Amaranthus retroflexus L.); test: as above; conditions: 21st to 22nd day after application, visual, read-out: Growth inhibition rate (%) Redroot pigweed
Text: as §3, §4

[12] = system: crabgrass (Digitaria sanquinalis L.); test: as above; conditions: 21st to 22nd day after application, visual, read-out: Growth inhibition rate (%) Crabgrass
Text: as §3, §4

[13] = system: green foxtail (Setaria viridis L.); test: as above; conditions: 21st to 22nd day after application, visual, read-out: Growth inhibition rate (%) Green foxtail
Text: as §3, §4

[14] = system: Japanese bulrush (Scirpus juncoides); test: Test Example 3, paddy field pot, application to irrigated water; conditions: Schoenoplectiella juncoides, applied at 0.5 leaf stage, 13th to 17th day after application, read-out: Growth inhibition rate (%) Japanese bulrush
Text: (§5) Paddy field soil was put into a 1/1,000,000 hectare pot, and seeds of barnyardgrass (Echinochloa oryzicola vasing.) and Japanese bulrush (Scirpus juncoides) were sown and lightly covered with soil. Then, pot was left to stand in a greenhouse in a state irrigated to a water depth of from 0.5 to 1 cm, and next day or two days later, tubers of Japanese ribbon waparo (Sagittaria pygmaea) were planted. Then, the irrigated water depth was maintained to be from 3 to 4 cm, and when barnyardgrass and Japanese bulrush reached 0.5 leaf stage, and Japanese ribbon waparo reached primary leaf stage, a water diluted solution of a wettable powder or an emulsifiable concentrate of the compound of the present invention prepared in accordance with a conventional preparation method, was uniformly dropwise applied by a pipette so that the amount of active ingredients would be a prescribed amount. Further, paddy field soil was put into a 1/1,000,000 pot, followed by soil puddling to an irrigated water depth of from 3 to 4 cm. Next day, rice (Oryza sativa L.) (var.: Nihonbare) of two leaf stage was transplanted in a transplantation depth of 3 cm. On the 4th day after transplantation, the compound of the present invention was applied in the same manner as described above.
(§6) On the 13th to 17th day after application, the state of growth of barnyardgrass, Japanese bulrush and Japanese ribbon waparo was visually observed, and on the 20th to 23rd day after application, the state of growth of rice was visually observed, and the herbicidal effect was evaluated by a growth inhibition rate (%) of 0 (equivalent to the non-treated area) to 100% (complete kill).

[15] = system: barnyardgrass (Echinochloa oryzicola vasing.); test: as above; conditions: applied at 0.5 leaf stage, 13th to 17th day after application, read-out: Growth inhibition rate (%) barnyard grass
Text: as §5, §6

[16] = system: velvetleaf (Abutilon theophrasti MEDIC.); test: Test Example 1, foliar treatment in upland pots; conditions: 20th to 22nd day after application, visual, read-out: Growth inhibition rate (%) Velvetleaf
Text: (§7) Upland field soil was put into a 1/170,000 hectare pot, and seeds of various plants were sown. When the respective plants reached predetermined leaf stage ((1) barnyardgrass (Echinochloa crus-galli L.): 1.2 to 3.0 leaf stage, (2) crabgrass (Digitaria sanguinalis L.): 1.0 to 3.0 leaf stage, (3) green foxtail (Setaria viridis L.): 1.5 to 3.0 leaf stage, (4) redroot pigweed (Amaranthus retroflexus L.): cotyledon stage to 1.5 leaf stage, (5) prickly sida (Sida spinosa L.): cotyledon stage to 2.0 leaf stage, (6) velvetleaf (Abutilon theophrasti MEDIC.): cotyledon stage to 1.3 leaf stage, (7) rice (Oryza sativa L.): 1.2 to 2.5 leaf stage, (8) corn (Zea mays L.): 2.0 to 3.3 leaf stage, (9) soybean (Glycine max Merr.): primary leaf stage to 0.3 leaf stage) and wheat (Triticum spp.): 2.0 to 3.0 leaf stage, wettable powders or emulsifiable concentrates of the compounds of the present invention prepared in accordance with a conventional preparation method, were weighed so that the active ingredients became the prescribed amounts, and diluted with water in an amount corresponding to 500 liter per 1 hectare (containing 0.1 vol % of an agricultural spreader (“KUSARINOH”, manufactured by NIHON NOHYAKU CO., LTD.)). The spray solutions thus prepared were applied for foliar treatment by a small sprayer.
(§8) On the 20th to 22nd day after application, the state of growth of the respective plants was visually observed, and the herbicidal effect was evaluated by a growth inhibition rate (%) of 0 (equivalent to the non-treated area) to 100% (complete kill).

[17] = system: barnyardgrass (Echinochloa crus-galli L.); test: Test Example 1, foliar treatment in upland pots; conditions: 20th to 22nd day after application, visual, read-out: Growth inhibition rate (%) Barnyardgrass
Text: as §7, §8

[18] = system: crabgrass (Digitaria sanguinalis L.); test: Test Example 1, foliar treatment in upland pots; conditions: 20th to 22nd day after application, visual, read-out: Growth inhibition rate (%) Crabgrass
Text: as §7, §8

[19] = system: soybean (Glycine max Merr.); test: Test Example 1, foliar treatment in upland pots; conditions: 20th to 22nd day after application, visual, read-out: Growth inhibition rate (%) Soybean
Text: as §7, §8

rice (Oryza sativa L.) [20] = test: Test Example 1, foliar treatment in upland pots; conditions: 20th to 22nd day after application, visual, read-out: Growth inhibition rate (%) Rice
Text: as §7, §8

corn (Zea mays L.) [21] = test: Test Example 1, foliar treatment in upland pots; conditions: 20th to 22nd day after application, visual, read-out: Growth inhibition rate (%) Corn
Text: as §7, §8

wheat (Triticum spp.) [22] = test: Test Example 1, foliar treatment in upland pots; conditions: 20th to 22nd day after application, visual, read-out: Growth inhibition rate (%) Wheat
Text: as §7, §8

[23] = system: prickly sida (Sida spinosa L.); test: Test Example 1, foliar treatment in upland pots; conditions: 20th to 22nd day after application, visual, read-out: Growth inhibition rate (%) Prickly sida
Text: as §7, §8

[24] = system: redroot pigweed (Amaranthus retroflexus L.); test: Test Example 1, foliar treatment in upland pots; conditions: 20th to 22nd day after application, visual, read-out: Growth inhibition rate (%) Redroot pigweed
Text: as §7, §8

[25] = system: green foxtail (Setaria viridis L.); test: Test Example 1, foliar treatment in upland pots; conditions: 20th to 22nd day after application, visual, read-out: Growth inhibition rate (%) Green foxtail
Text: as §7, §8

[26] = system: rice (Oryza sativa L.) (var.: Nihonbare); test: Test Example 3, paddy field pot, transplanted rice; conditions: applied 4th day after transplantation, 20th to 23rd day after application, read-out: Growth inhibition rate (%) Rice
Text: as §5, §6

Work on `CCn1ncc(C(=O)c2ccc(S(C)(=O)=O)c(OCCOC)c2Cl)c1O` [Reference Compound 1] yielded an inhibition at 3.5 g/ha [1] of 30%, an inhibition at 3.5 g/ha [2] of 45% and an inhibition at 7 g/ha [3] of 40%. The inhibition at 250 g/ha ([4]; depth 0-3 cm, read-out: Growth inhibition rate (%) against sorgo, Depth (cm) from the applied surface 0-3) was 58%, the inhibition at 250 g/ha ([4]; depth 3-6 cm, read-out: Growth inhibition rate (%) against sorgo, Depth (cm) from the applied surface 3-6) was 58% and the inhibition at 250 g/ha ([4]; depth 6-9 cm, read-out: Growth inhibition rate (%) against sorgo, Depth (cm) from the applied surface 6-9) was 58%. The inhibition at 250 g/ha ([4]; depth 9-12 cm, read-out: Growth inhibition rate (%) against sorgo, Depth (cm) from the applied surface 9-12) was 60%, the inhibition at 250 g/ha ([4]; depth 12-15 cm, read-out: Growth inhibition rate (%) against sorgo, Depth (cm) from the applied surface 12-15) was 53% and the inhibition at 250 g/ha ([4]; depth 15-18 cm, read-out: Growth inhibition rate (%) against sorgo, Depth (cm) from the applied surface 15-18) was 35%. It also gave an inhibition at 250 g/ha ([4]; depth 18-21 cm, read-out: Growth inhibition rate (%) against sorgo, Depth (cm) from the applied surface 18-21) of 28%, an inhibition at 250 g/ha ([4]; depth 21-24 cm, read-out: Growth inhibition rate (%) against sorgo, Depth (cm) from the applied surface 21-24) of 30% and an inhibition at 250 g/ha ([4]; depth 24-27 cm, read-out: Growth inhibition rate (%) against sorgo, Depth (cm) from the applied surface 24-27) of 28%. The inhibition at 250 g/ha ([4]; depth 27-30 cm, read-out: Growth inhibition rate (%) against sorgo, Depth (cm) from the applied surface 27-30) was 15%.

In the case of `COCCOc1c(S(C)(=O)=O)ccc(C(=O)c2c(C)nn(C(C)C)c2O)c1C` [Compound No. 8-2, (5-Hydroxy-1-isopropyl-3-methyl-1H-pyrazol-4-yl)(3-(2-methoxyethoxy)-2-methyl-4-(methylsulfonyl)phenyl)ketone], the inhibition at 250 g/ha [5] is reported as 70%, the inhibition at 250 g/ha [6] is reported as 100% and the inhibition at 250 g/ha (rice (Oryza sativa L.) [7]) is reported as 100%. For the same compound, the inhibition at 250 g/ha (corn (Zea mays L.) [8]) was 60%, the inhibition at 250 g/ha (wheat (Triticum spp.) [9]) was 20% and the inhibition at 250 g/ha [10] was 60%. The inhibition at 250 g/ha [11] was 100%, the inhibition at 250 g/ha [12] was 100% and the inhibition at 250 g/ha [13] was 100%. It also gave an inhibition at 63 g/ha [14] of 70%, an inhibition at 63 g/ha [15] of 40% and an inhibition at 7 g/ha [16] of 60%. For the same compound, the inhibition at 7 g/ha [17] was 20%, the inhibition at 7 g/ha [18] was 40% and the inhibition at 7 g/ha [19] was 10%. The inhibition at 7 g/ha (rice (Oryza sativa L.) [20]) was 0%, the inhibition at 7 g/ha (corn (Zea mays L.) [21]) was 0% and the inhibition at 7 g/ha (wheat (Triticum spp.) [22]) was 0%. For the same compound, the inhibition at 7 g/ha [23] was 20%, the inhibition at 7 g/ha [24] was 60% and the inhibition at 7 g/ha [25] was 50%. It also gave an inhibition at 63 g/ha [26] of 10%.
